Data: patent publication US12290521B2, “Methods and materials for identifying and treating BET inhibitor-resistant cancers” (Mayo Foundation for Medical Education and Research, priority 2018, dated 2025)
pIC50: −log10 of the molar value. Entries after “also recorded” stand apart in the source; their conditions may differ.

How the values were obtained:
DU145 cells = test: Clonogenic survival (colony formation) assay; format: cell-based, human; conditions: JQ1 for 3 days, harvested at day 10
Procedure: FIGS. 26A-26I. Determination of the role of DUB3-mediated stabilization of BRD4 in BET inhibitor resistance using both loss of function and gain of function approaches. (FIG. 26A) Western blot analysis of indicated proteins in PC-3 cells infected with lentivirus expressing control or DUB3-specific shRNA for 24 hours and then co-transfected with plasmids for wild-type (WT) and mutants of HA-DUB3 for 24 hours. (FIG. 26B) Western blot analysis of indicated proteins in PC-3 cells infected with lentivirus expressing control or DUB3-specific shRNAs for 24 hours and then co-transfected with the indicated plasmids for 24 hours. Cells were treated with MG132 for 8 hours before harvested. (FIG. 26C) DU145 cells were infected with lentivirus expressing control or DUB3-specific shRNAs. After 48 hours puromycin selection, cells were treated with I-BET (5 μM), PD0332991 (5 μM) or both followed by MTS assay. All data are shown as mean values±SD (n=6). ***P<0.001, n.s., not significant. (FIG. 26D, FIG. 26E) DU145 cells were infected with lentivirus expressing indicated shRNAs and/or plasmids. After 48 hours puromycin selection, cells were treated with JQ1 (2 μM), PD0332991 (5 μM) or both followed by MTS assay (FIG. 26D) and Western blot (FIG. 26E). The quantitative data are shown as mean values±SD (n=6). ***P<0.001, n.s., not significant. (FIG. 26F, FIG. 26G) DU145 cells were infected with lentivirus expressing indicated shRNAs and/or plasmids. After 48 hours puromycin selection, cells were treated with I-BET (5 μM), PD0332991 (5 μM) or both followed by MTS assay (FIG. 26F) and Western blot (FIG. 26G). All data are shown as mean values±SD (n=6). *P<0.05, ***P<0.001, n.s., not significant. (FIG. 26H) DU145 cells were infected with lentivirus expressing control, DUB3 expressing vector and/or control or BRD4-specific shRNAs. After 48 hours puromycin selection, cells were plated for clonogenic survival assay. Cells were treated with a series of JQ1 concentrations for 3 days and harvested at day 10. Colonies with more than 50 cells were counted. IC50 is shown as a dotted line in the middle of the graph. […] OE, overexpression. KD, shRNA-mediated knockdown. (FIG. 26I) DU145 cells were infected with lentivirus as in (FIG. 26H) for 48 hours and then treated with 0.5 μM of JQ1 for 3 days and harvested at day 10. Colonies were photographed and quantified. Data represent means±SEM (n=3); P values were determined by the unpaired two-tailed Student's t-test. *P<0.05, **P<0.01.
An appropriate number of cells for different dosages of JQ1 were plated onto 6-well plate and treated with JQ1 for three days. After three-day treatment, the medium was changed with fresh medium without drugs for another 8 days. […] Colonies with more than 50 cells were counted. […]

DUB3 = conditions: Borbely et al., Oncotarget 2015; cited from earlier work
C4-2 cells = test: Cell proliferation assay (MTS) and trypan blue assay; format: cell-based, human
Procedure: CellTiter 96® AQueous One Solution Cell Proliferation Assay (MTS) (Promega) was used to measure cell growth according to the manufacturer's instructions. Briefly, cells were plated in 96-well plates at a density of 2,000 cells per well. At the indicated times, 20 μL of Cell Titer 96R Aqueous One Solution Reagent was added to medium. After incubating for 1 hour at 37° C. in the cell incubator, cell growth was measured in a microplate reader at 490 nm.
Trypan blue assay was performed to measure cell growth according to the manufacturer's instructions. Briefly, cells were plated in 6-well plates at a density of about 5×10^4 to about 1×10^5 cells per well. At the indicated time points, cells were trypsinized and suspended in 1 mL 1×PBS. 100 μL cells and 100 μL trypan blue solution (Sigma-Aldrich) were mixed, and the number of viable cells was measured using the Bio-Rad automated cell counter.
Cell proliferation was measured by using the MTS assay (Promega). Prostate cancer cells (2,000 per well) were seeded in 96-well plates with 100 μL of culture medium. Each well was added with 20 μL of CellTiter 96R AQueous One Solution Reagent (Promega) and absorbance was measured in a microplate reader at 490 nm.

## Cc1sc2c(c1C)C(c1ccc(Cl)cc1)=N[C@@H](CC(=O)OC(C)(C)C)c1nnc(C)n1-2 [JQ1]
DU145 cells; DU145 BRD4 KD (shRNA knockdown)
  pIC50: 6.56
DU145 cells; DU145 DUB3 OE (overexpression)
  pIC50: 6.24
DU145 cells; DU145 DUB3 OE BRD4 KD
  pIC50: 6.53
DU145 cells; DU145 EV (control)
  pIC50: 6.38
DUB3
  DUB3 mRNA level: rapid upregulation
C4-2 cells; BRD4 knockout C4-2 cells with BRD2/3 largely depleted, JQ1 up to 500 nM, 24 hours
  sensitivity of cell growth to JQ1: highly resistant
C4-2 cells; SPOP F133V-expressing C4-2 cells, JQ1 2 μM, MTS
  sensitivity of cell growth to JQ1: JQ1 resistance
C4-2 cells; SPOP-F133V-expressing C4-2 cells, JQ1 0.25 μM every other day
  effect on cell growth: largely impeded
C4-2 cells; SPOP-knockdown C4-2 cells, JQ1 0.25 μM every other day
  effect on cell growth: largely attenuated
C4-2 cells; control (shC / EV) C4-2 cells, JQ1 0.25 μM every other day
  cell growth: robustly inhibited; also recorded: inhibited growth
